A value given as a limit tells only on which side of the number the result lay.

In this experiment the target is human HSV DNA polymerase UL30 (Human herpesvirus 1 (strain 17) (HHV-1) (Human herpes simplex virus 1), UniProt P04293). Nature of the experiment: biochemical. The following applies: 625 pM HSV polymerase, 20 minutes at room temperature; read-out: HSV-polymerase Biochemical IC50.
As for `Cn1nc(C(=O)NCc2ccc(C#N)cc2)c2c1C(=O)N(CC1(S(=O)(=O)N3CCC(C)(O)C3)CC1)CC2` (single isomer, unassigned) [Example 130, (R)- or (S)-N-(4-Cyanobenzyl)-6-((1-((3-hydroxy-3-methylpyrrolidin-1-yl)sulfonyl)cyclopropyl)methyl)-1-methyl-7-oxo-4,5,6,7-tetrahydro-1H-pyrazolo[3,4-c]pyridine-3-carboxamide], the 50% inhibitory concentration (IC50) was determined as 122 nM. Then `Cn1nc(C(=O)NCc2ccc(C#N)cc2)c2c1C(=O)N(CC1(S(=O)(=O)C3CC3)CC1)CC2` [Example 3, N-(4-cyanobenzyl)-6-((1-(cyclopropylsulfonyl)cyclopropyl)methyl)-1-methyl-7-oxo-4,5,6,7-tetrahydro-1H-pyrazolo[3,4-c]pyridine-3-carboxamide], with 55 nM. With `Cn1nc(C(=O)NCc2ccc(Cl)cc2)c2c1C(=O)N(CC1(S(=O)(=O)C3CC3)CC1)CC2` [Example 4, N-(4-Chlorobenzyl)-6-((1-(cyclopropylsulfonyl)cyclopropyl)methyl)-1-methyl-7-oxo-4,5,6,7-tetrahydro-1H-pyrazolo[3,4-c]pyridine-3-carboxamide] the figure was 48 nM; with `Cn1nc(C(=O)NCc2ccc(F)cc2)c2c1C(=O)N(CC1(S(=O)(=O)C3CC3)CC1)CC2` [Example 5, 6-((1-(Cyclopropylsulfonyl)cyclopropyl)methyl)-N-(4-fluorobenzyl)-1-methyl-7-oxo-4,5,6,7-tetrahydro-1H-pyrazolo[3,4-c]pyridine-3-carboxamide], 416 nM. With `CN(Cc1ccc(C#N)cc1)C(=O)c1nn(C)c2c1CCN(CC1(S(=O)(=O)C3CC3)CC1)C2=O` [Example 6, N-(4-Cyanobenzyl)-6-((1-(cyclopropylsulfonyl)cyclopropyl)methyl)-N,1-dimethyl-7-oxo-4,5,6,7-tetrahydro-1H-pyrazolo[3,4-c]pyridine-3-carboxamide] the figure was 959 nM; with `Cc1ccc(CNC(=O)c2nn(C)c3c2CCN(CC2(S(=O)(=O)C4CC4)CC2)C3=O)cc1` [Example 8, 6-((1-(Cyclopropylsulfonyl)cyclopropyl)methyl)-1-methyl-N-(4-methylbenzyl)-7-oxo-4,5,6,7-tetrahydro-1H-pyrazolo[3,4-c]pyridine-3-carboxamide], 1630 nM.

Turning to `Cn1nc(C(=O)NCc2ccc(C#N)c(F)c2)c2c1C(=O)N(CC1(S(=O)(=O)C3CC3)CC1)CC2` [Example 9, N-(4-Cyano-3-fluorobenzyl)-6-((1-(cyclopropylsulfonyl)cyclopropyl)methyl)-1-methyl-7-oxo-4,5,6,7-tetrahydro-1H-pyrazolo[3,4-c]pyridine-3-carboxamide], the 50% inhibitory concentration (IC50) amounted to 45 nM.

As to `Cn1nc(C(=O)NCc2ccc(Cl)s2)c2c1C(=O)N(CC1(S(=O)(=O)C3CC3)CC1)CC2` [Example 10, N-((5-Chlorothiophen-2-yl)methyl)-6-((1-(cyclopropylsulfonyl)cyclopropyl)methyl)-1-methyl-7-oxo-4,5,6,7-tetrahydro-1H-pyrazolo[3,4-c]pyridine-3-carboxamide], the half-maximal inhibitory concentration (IC50) was found to be 641 nM. With `Cc1cc(CNC(=O)c2nn(C)c3c2CCN(CC2(S(=O)(=O)C4CC4)CC2)C3=O)ccc1C#N` [Example 11, N-(4-Cyano-3-methylbenzyl)-6-((1-(cyclopropylsulfonyl)cyclopropyl)methyl)-1-methyl-7-oxo-4,5,6,7-tetrahydro-1H-pyrazolo[3,4-c]pyridine-3-carboxamide] the figure was 2230 nM.

`Cc1cc(C#N)ccc1CNC(=O)c1nn(C)c2c1CCN(CC1(S(=O)(=O)C3CC3)CC1)C2=O` [Example 12, N-(4-Cyano-2-methylbenzyl)-6-((1-(cyclopropylsulfonyl)cyclopropyl)methyl)-1-methyl-7-oxo-4,5,6,7-tetrahydro-1H-pyrazolo[3,4-c]pyridine-3-carboxamide]: the half-inhibitory concentration (IC50) worked out at 346 nM. With `Cn1nc(C(=O)NCc2ccc(C#N)cc2F)c2c1C(=O)N(CC1(S(=O)(=O)C3CC3)CC1)CC2` [Example 13, N-(4-Cyano-2-fluorobenzyl)-6-((1-(cyclopropylsulfonyl)cyclopropyl)methyl)-1-methyl-7-oxo-4,5,6,7-tetrahydro-1H-pyrazolo[3,4-c]pyridine-3-carboxamide] the figure was 311 nM; with `Cn1nc(C(=O)NCc2ccc(C#N)cn2)c2c1C(=O)N(CC1(S(=O)(=O)C3CC3)CC1)CC2` [Example 14, N-((5-Cyanopyridin-2-yl)methyl)-6-((1-(cyclopropylsulfonyl)cyclopropyl)methyl)-1-methyl-7-oxo-4,5,6,7-tetrahydro-1H-pyrazolo[3,4-c]pyridine-3-carboxamide], 1610 nM. Then `COc1cc(CNC(=O)c2nn(C)c3c2CCN(CC2(S(=O)(=O)C4CC4)CC2)C3=O)ccc1C#N` [Example 15, N-(4-Cyano-3-methoxybenzyl)-6-((1-(cyclopropylsulfonyl)cyclopropyl)methyl)-1-methyl-7-oxo-4,5,6,7-tetrahydro-1H-pyrazolo[3,4-c]pyridine-3-carboxamide], with 385 nM; and `C[C@H](NC(=O)c1nn(C)c2c1CCN(CC1(S(=O)(=O)C3CC3)CC1)C2=O)c1ccc(C#N)cc1` [Example 16, (S)-N-(1-(4-Cyanophenyl)ethyl)-6-((1-(cyclopropylsulfonyl)cyclopropyl)methyl)-1-methyl-7-oxo-4,5,6,7-tetrahydro-1H-pyrazolo[3,4-c]pyridine-3-carboxamide], with 239 nM. With `C[C@@H](NC(=O)c1nn(C)c2c1CCN(CC1(S(=O)(=O)C3CC3)CC1)C2=O)c1ccc(C#N)cc1` [Example 17, (R)-N-(1-(4-Cyanophenyl)ethyl)-6-((1-(cyclopropylsulfonyl)cyclopropyl)methyl)-1-methyl-7-oxo-4,5,6,7-tetrahydro-1H-pyrazolo[3,4-c]pyridine-3-carboxamide] the figure was above 25000 nM; with `Cn1nc(C(=O)N[C@@H](CO)c2ccc(Cl)cc2)c2c1C(=O)N(CC1(S(=O)(=O)C3CC3)CC1)CC2` [Example 18, (R)-N-(1-(4-Chlorophenyl)-2-hydroxyethyl)-6-((1-(cyclopropylsulfonyl)cyclopropyl)methyl)-1-methyl-7-oxo-4,5,6,7-tetrahydro-1H-pyrazolo[3,4-c]pyridine-3-carboxamide], 1060 nM; with `Cn1nc(C(=O)N[C@H](CO)c2ccc(Cl)cc2)c2c1C(=O)N(CC1(S(=O)(=O)C3CC3)CC1)CC2` [Example 19, (S)-N-(1-(4-Chlorophenyl)-2-hydroxyethyl)-6-((1-(cyclopropylsulfonyl)cyclopropyl)methyl)-1-methyl-7-oxo-4,5,6,7-tetrahydro-1H-pyrazolo[3,4-c]pyridine-3-carboxamide], 8180 nM. Turning to `CCS(=O)(=O)C1(CN2CCc3c(C(=O)NCc4ccc(C#N)cc4)nn(C)c3C2=O)CC1` [Example 20, N-(4-Cyanobenzyl)-6-((1-(ethylsulfonyl)cyclopropyl)methyl)-1-methyl-7-oxo-4,5,6,7-tetrahydro-1H-pyrazolo[3,4-c]pyridine-3-carboxamide], the IC50 was 259 nM. Consider `Cn1nc(C(=O)NCc2ccc(C#N)cc2)c2c1C(=O)N(CC1(S(C)(=O)=O)CC1)CC2` [Example 21, N-(4-Cyanobenzyl)-1-methyl-6-((1-(methylsulfonyl)cyclopropyl)methyl)-7-oxo-4,5,6,7-tetrahydro-1H-pyrazolo[3,4-c]pyridine-3-carboxamide], for which the IC50 is 517 nM.

The values above are taken from patent publication US20250353820A1, “ANTIVIRAL PYRAZOLOPYRIDINONE COMPOUNDS” (Novartis AG, priority 2019, published 2025).
